Data reported in patent US8518953B2, “Aminopyrimidines useful as inhibitors of protein kinases” (Vertex Pharmaceuticals Incorporated, priority 2007, dated 2013).

Tests used:
[1] = test system: rats subjected to MCAO; assay: Post Stroke Recovery MCAO Model: Forelimb Inhibition (Swimming Test); format: in vivo, rat; conditions: 7 and 14 days after stroke
Description: Adult male Wistar rats are pre-trained on a battery of behavioral tests including: tray reach, […], forelimb asymmetry (cylinder bracing), forelimb inhibition (swim test) (see below for detailed description of tests). Following pre-stroke behavioral assessment the rats receive surgery during which a stroke is induced. The rats are pseudo-randomly divided into 5 equal groups (n=12) ensuring an equal number of right and left strokes within each treatment group. The first group receives sham surgery with vehicle as treatment. Administration of the test compound and vehicle (dose, route, timing) is determined by the sponsor. The core body temperature is maintained at 37° C. (+/-1°). Following surgery all animals are behaviorally assessed 1, 7, and 14 d post-stroke. At the conclusion of behavioral assessment all rats undergo an MRI to determine infarct volume. Group behavioral performance and stroke volume are compared between groups using one way analysis of variance to determine therapeutic benefit of the compound in rate and extent of recovery of function following MCAO stroke. […] Rectal temperature is monitored and maintained at 37 C+/-1° C. for the duration of the surgery and until the rat is awake and mobile (approximately 3 hr). […] Inhibition of the forelimbs is assessed by filming animals during swimming. […] Only the mid 80% of the length is scored. […]

[2] = test system: β-catenin dependent TCF/LEF transcriptional activity; assay: β-Catenin Stabilization Protocol (β-lactamase reporter assay in Jurkat cells); format: cell-based; conditions: Homo sapiens, 460/530 ratio, read-out: Beta Catenin IC50
Description: GSK-3 phosphorylation of β-catenin targets it to the proteosome for degradation. Inhibition of GSK-3 results in accumulation of β-catenin in the cytosol of cells which through interaction with the transcription factor TCF/LEF translocates to the nucleus and drives the transcription of Wnt-dependent genes. The assay is designed to determine the level of β-catenin dependent TCF/LEF transcriptional activity in a quantitative manner through the use of a β-lactamase reporter assay in Jurkat cells dosed with a compound.
Jurkat β-catenin cells are starved overnight in assay media (1% FBS, 1× Penstrep, RPMI) in the flask. The next day Jurkat β-catenin cells are seeded in 96 well flat bottom plates at a density of 50,000 cells/well in assay media in a volume of 100 ul. The compound is added to the well at a final DMSO concentration of 0.75% and incubated at 37° C. o/n. The next day, 20 uL of 6×CCF4 dye is added to the wells and incubated at room temperature for 1-2 hours. Plates are read on the Cytofluor 4000 series multiwell plate reader and the 460/530 ratio is determined.

`Cc1nc(-c2ccccc2Cl)nc(Nc2n[nH]c3ncc(F)cc23)c1C` [Compound I-1, N-(2-(2-chlorophenyl)-5,6-dimethylpyrimidin-4-yl)-5-fluoro-1H-pyrazolo[3,4-b]pyridin-3-amine] was tested. Which “deficit in forelimb inhibition (swimming test)” value [1] did it give?
The value was “significantly ameliorated this deficit”.

And the IC50 [2]?
Its IC50 is 230 nM.
